Patent publication US20120222139A1, “Cancer Specific Mitotic Network” (THE REGENTS OF THE UNIVERSITY OF CALIFORNIA, priority 2009, published 2012)

B1: HJURP shRNA: shRNA against HJURP (SEQ ID NO: 56 and 57) cloned into pSUPER.retro.puro retroviral vector (nucleic acid)
sense: GATCCCCGAGCGATTCATCTTCATCATTCAAGAGATGATGAAGATGAATCGCTCTTTTTGGAA
antisense: AGCTTTTCCAAAAAGAGCGATTCATCTTCATCATCTCTTGAATGATGAAGATGAATCGCTCGGG

Key:
Format in all cases: cell-based, human
[1] = system: panel of 53 breast cancer cell lines; assay: Cell viability/growth assay and dose response (GI50), CellTiter-Glo; conditions: for GI50 values in cell lines with a high MNAI as compared to a low MNAI: breast cancer cell lines, FIG. 6; for effectiveness by breast cancer subtype: panel of 50 breast cancer cell lines that included both basal and luminal cell lines
Protocol: Human non-malignant and breast cancer cell lines, established from normal and human breast cancer samples, are publicly available and were used in the development of the mitotic network. The source of these cells includes nearly 55 well-characterized breast cell lines with genomic information (i.e. gene copy numbers of various genes) and gene expression data such as gene signatures characteristic of each cell line. Information that directs optimal incubation conditions are detailed in The cell incubational condition of the cell lines was shown reference (Neve, R. M. et al. Cancer Cell 10, 515-527 (2006).
The inhibitor compounds used were small molecule inhibitors. Theses small-molecule inhibitors for PLK1 (GSK461364), CENPE (GSK923295) and AURKB (GSK1070916) were provided by GlaxoSmithKline Inc. Stock solutions were made at a concentration of 10 mM in DMSO and stored at −20° C. Compounds were diluted (1:5 serial dilution), ranging between 0.0768 nM to 30 μM.
The cell viability and growth assay and dose response (GI50) experiments were conducted following dose-response curves that were determined according to the National Cancer Institute (NCI), National Institute of Health (NIH) guidelines. In brief, cell suspensions were plated into 96-well plates in 100 μl growth media. Inoculates were allowed a pre-incubation period of 24 hours at 37° C. for stabilization. Cells were treated with 9 doses in triplicates for 72 hours with GSK461364 or GSK1070916. Cell proliferation was measured with CellTiter-Glo® Luminescent Cell Viability Assay (Promega, Madison, Wis.). After subtraction of the baseline (the viability of the cells just before treatment, time 0), the absorbance was plotted. Total growth inhibition doses and 50% growth inhibition doses GI50 were calculated by GraphPad Prism4 software (GraphPad Software, Inc., La Jolla, Calif.).
Human non-malignant and breast cancer cell lines have been established from normal and human breast cancer samples. The cell lines described in this study derived from 49 malignant and 4 non-malignant breast tissues and growth conditions for the cell lines have been reported previously This resource consists of nearly 54 well-characterized breast cell lines with information on genomic and gene expression signatures. The cell incubational condition of the cell lines was shown previously by some of the inventors in Neve, R. M. et al. Cancer Cell 10, 515-527 (2006).
The small-molecule inhibitors for PLK1 (GSK461364), CENPE (GSK923295) and AURKB (GSK1070916) were provided by GlaxoSmithKline, Inc. Stock solutions were made at a concentration of 10 mM in DMSO and stored at −20° C. Compounds were diluted (1:5 serial dilution) to produce test drug concentrations ranging from 0.0768 nM to 30 μM.
Dose-response curves were determined according to the National Cancer Institute NIH guidelines. In brief, cell suspensions were aliquoted into 96-well plates in 100 μl growth media. Inoculates were allowed a preincubation period of 24 hours at 37° C. for stabilization. Cells were treated with 9 doses in triplicate for 72 hours with GSK461364 or GSK1070916. Cell proliferation was measured with CellTiter-Glo® Luminescent Cell Viability Assay (Promega, Madison. WI). After subtraction of the baseline (an estimate of the number of the cells just before treatment, time 0), the absorbance was plotted. Total growth inhibition doses and 50% growth inhibition doses GI50 were calculated by GraphPad Prism4 software (GraphPad Software, Inc., La Jolla, Calif.).
The correlation among the cellular GI50 values of GSK461364, GSK1070916 and GSK92325 was examined by Pearson correlation test. Tumor expression profiles were clustered using the mitotic network genes. Kaplan-Meier survival curves were generated for patients stratified into groups of high (upper tertile) and low (lower tertile) MNAI to evaluate differences in disease-free survival (DFS). […]

[2] = system: sensitive (HCC38) or resistant (MDAMB175) breast cancer cell line; assay: Treatment with mitotic apparatus inhibitors alone or in combination of two; conditions: HCC38 (sensitive) and MDAMB175 (resistant), FIG. 8
Protocol: Dose response to GSK461364, GSK923295 and GSK1070916 was assayed individually or in combination in different breast cancer subtypes. FIG. 8A is a graph of response to single and combination doses of PLK1 and AURKB inhibitors; FIG. 8B is a graph of response to single and combination doses of PLK1 and CENPE inhibitors; and FIG. 8C is a graph of response to single and combination doses of CENPE and AURKB inhibitors.
In that case, combinations of mitotic apparatus inhibitors would not be expected to show additive or synergistic effects. We tested this by treatment of sensitive and resistant breast cancer cell lines with GSK461364 or GSK1070916 or GSK923295 alone and in combination two of them at different doses. […] That being the case, deployment of drugs targeting other genes in the mitotic apparatus network might contribute to development of a mitotic apparatus therapeutic armamentarium that could effectively counter development of drug resistance and provide durable treatments that will be effective against metastasis. Small molecular inhibitors have already been reported as under development for AURKA (MLN8054), CHEK2 (PD-321852). […] Work developing the mitotic network informs that inhibitors of these genes will be preferentially be effective in tumors with high MNAIs and are thus top candidates for drug development.
This was tested by treating a sensitive (HCC38) or resistant (MDAMB175) breast cancer cell line with GSK461364, GSK1070916 and GSK923295 either alone or in combination.

[3] = system: HJURP protein in MDAMB231; assay: HJURP protein level by Western blot after HJURP shRNA; conditions: stable transfectants in MDAMB231, Western blotting, FIG. 20e
Protocol: For Western blots, […] of protein extracts per lane were electrophoresed with denaturing sodium doedecyl sulfate (SDS)-polyacrylamide gels (4% to 12%), transferred to PVDF membranes (Millipore, Temecula, Calif., USA), and incubated with HJURP antibody 1:500 (Rabbit, HPA008436, Sigma-Aldrich, St. Louis, Mo., USA) and actin (goat, sc-1616, Santa Cruz Biotechnology, Santa Cruz, Calif., USA) diluted with blocking buffer (927-40000, LI-COR Biosciences, Lincoln, Nebr., USA) The membranes were washed four times with TBST and treated with 1:10,000 dilution of Alex Fluor 680 donkey anti-rabbit (A10043 Invitrogen, Carlsbad, Calif., USA) and IRDye 800CW conjugated donkey anti-goat (611-731-127, Rockland, Gilbertsville, Pa., USA) to detect HJURP and actin respectively. The signals were detected by infrared imaging (LI-COR Biosciences, Lincoln, Nebr., USA). Images were recorded as TIFF files for quantification.
Protein levels were measured by quantifying infrared imaging recorded from labeled antibodies using Scion Image. For each protein, the blots were made for 7 sets of 11 cell lines, each set including the same pair (SKBR3 and MCF12A) to permit intensity normalization across sets. […]
Seventy-two hours after radiation, we measured cell growth and apoptosis using high-content image analysis. […]

[4] = system: MDAMB231 breast cancer cells; assay: Radiation sensitivity, high content imaging of cell number and apoptotic cells; conditions: MDAMB231, 72 hours after X-ray radiation, FIG. 20f
Protocol: MDAMD231 cells are more sensitive to radiation treatment than T47D cells. […] There are more apoptosis in MDAMB231 cells than T47D cells. […] BT20 cells are more sensitive to radiation treatment than MCF10A cells. […] There are more apoptosis in BT20 cells than MCF10A cells.
High content imaging to assess cell number and apoptotic cells. The effects on cell growth and apoptosis were assessed by a Cellomics high-content image screening system (Cellomics, Thermo Fisher Scientific Inc., Pittsburgh, Pa., USA) after breast cancer cells exposed to a single dose of 0 (sham), 1, 2, 4, 6, 8 or 10 Gy X-ray radiation emitted from an irradiator (model 43855F, Faxitron X-ray Corporation, Lincolnshire, Ill., USA). Live cells in 96 well plates with six replicates from each treatment were stained with 1 μmol/L YO-PRO-1 positive cells.
Seventy-two hours after radiation, we measured cell growth and apoptosis using high-content image analysis. […] Similar results were found in additional cell lines BT20 with high levels of HJURP and MCF10A with low levels of HJURP (FIG. 20c, d). Finally we designed […] (shRNA) against HJURP and generated stable transfectants in a human breast cancer cell line (MDAMB231).

cells with HJURP shRNA = assay: Growth of cells with HJURP shRNA (data not shown)

Molecule | GI50 values in cell lines with a high MNAI as compared to a low MNAI [1] | effectiveness by breast cancer subtype [1] | response to combination of compounds against two different mitotic apparatus proteins versus alone [2] | down-regulation of HJURP protein levels [3] | sensitivity to radiation [4] | cell growth (cells with HJURP shRNA)
CCn1cc(-c2ccnc3[nH]c(-c4cccc(CN(C)C)c4)cc23)c(-c2ccc(NC(=O)N(C)C)cc2)n1 [GSK1070916] | significantly lower in cell lines with a high MNAI | most effective against basal cell breast cancer subtypes | did not increase the response in either cell type |  |  | 
CC(C)Oc1ccc(C(=O)N[C@H](CNC(=O)CN(C)C)Cc2ccc(-c3cn4cccc([C@H](C)O)c4n3)cc2)cc1Cl [GSK923295] | significantly lower in cell lines with a high MNAI | most effective against basal cell breast cancer subtypes | did not increase the response in either cell type |  |  | 
C[C@@H](Oc1cc(-n2cnc3ccc(CN4CCN(C)CC4)cc32)sc1C(N)=O)c1ccccc1C(F)(F)F [GSK461364] | significantly lower in cell lines with a high MNAI | most effective against basal cell breast cancer subtypes | did not increase the response in either cell type |  |  | 
B1 |  |  |  | 75% | reduced the sensitivity to radiation | grew slowly
